Measurements: the supplement of paper PMC10920090

Assays:
MDA-MB-231 [1] = assay: drug sensitivity score (DSS), cytotoxicity CellTox Green; higher = more cytotoxic; extreme values may be limits of the assay; conditions: 72 h
MDA-MB-231 [2] = assay: drug sensitivity score (DSS), cell viability CellTiter-Glo; higher = more sensitive; extreme values may be limits of the assay; conditions: 72 h
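Throughout, for drug sensitivity score (DSS), cytotoxicity CellTox Green: DSS summarises each dose–response curve by combining IC50, EC50, maximal inhibition and efficacy across drug concentrations.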

Compound	drug sensitivity score (MDA-MB-231 [1]; shRNA: shPPFIA1_1) [DSS]	drug sensitivity score (MDA-MB-231 [1]; shRNA: shScramble) [DSS]	drug sensitivity score (MDA-MB-231 [2]; shRNA: shPPFIA1_1) [DSS]	drug sensitivity score (MDA-MB-231 [2]; shRNA: shScramble) [DSS]
N#Cc1c(Oc2ccc(F)c(NC(=O)Cc3cccc(C(F)(F)F)c3)c2)ccc2nc(NC(=O)C3CC3)sc12 [TAK-632]	17.8	5.3	1.6	8.7
Cc1nc(NC(=O)N2CCC[C@H]2C(N)=O)sc1-c1ccnc(C(C)(C)C(F)(F)F)c1 [Alpelisib]	0	0	1.5	0
O=C(CCCCCCC(=O)Nc1ccccc1)NO [Vorinostat]	6.9	2.5	2.4	6.6
Nc1ccn([C@@H]2O[C@H](CO)[C@@H](O)C2(F)F)c(=O)n1 [Gemcitabine]	0.3	0	1.3	8.6
CNC(=O)c1ccccc1Sc1ccc2c(/C=C/c3ccccn3)n[nH]c2c1 [Axitinib]	0	0	0	0.2
Cc1c2oc3c(C)ccc(C(=O)N[C@@H]4C(=O)N[C@H](C(C)C)C(=O)N5CCC[C@H]5C(=O)N(C)CC(=O)N(C)[C@@H](C(C)C)C(=O)O[C@@H]4C)c3nc-2c(C(=O)N[C@@H]2C(=O)N[C@H](C(C)C)C(=O)N3CCC[C@H]3C(=O)N(C)CC(=O)N(C)[C@@H](C(C)C)C(=O)O[C@@H]2C)c(N)c1=O [Dactinomycin]	14.9	12.4	14.1	25.9
COc1cc([C@@H]2c3cc4c(cc3[C@@H](O[C@@H]3O[C@@H]5CO[C@@H](C)O[C@H]5[C@H](O)[C@H]3O)[C@H]3COC(=O)[C@H]23)OCO4)cc(OC)c1O [Etoposide]	1.6	1.8	0	2
CCN(CC)CCCC(C)Nc1c2ccc(Cl)cc2nc2ccc(OC)cc12 (stereo not drawn) [Mepacrine]	18.5	18.6	18.6	21.1
C[C@@H]1CN(CC(=O)Nc2ccc3c(c2)Cc2cccc(-c4cc(=O)cc(N5CCOCC5)o4)c2S3)C[C@H](C)O1	0.2	0	0	3.6
CNC(=O)c1ccc(-c2cnc3ncc(Cc4ccc5ncccc5c4)n3n2)cc1F [NVP-INC280]	0	0	4.5	10.5
O=C(Nc1cccc(NC(=O)c2cccc(O)c2O)c1)c1cccc(O)c1O [MST-312]	0	0	8.6	7.6
CC(=O)c1c(C)c2cnc(Nc3ccc(N4CCNCC4)cn3)nc2n(C2CCCC2)c1=O [Palbociclib]	0	0	0	2.4
COc1cc2ncnc(Oc3cccc(NC(=O)Nc4cc(C(C)(C)C(F)(F)F)on4)c3)c2cc1OC	4	7.8	0	7.7
CN(C)Cc1c(C(=O)NCCOc2ccc(C(=O)NO)cc2)oc2ccccc12 [Abexinostat]	16.6	10.4	3.4	12.2
COc1ccc(C2=N[C@@H](c3ccc(Cl)cc3)[C@@H](c3ccc(Cl)cc3)N2C(=O)N2CCNC(=O)C2)c(OC(C)C)c1 [Nutlin-3]	0	0	0	0
NCCNc1ccc(NCCN)c2c1C(=O)c1ccncc1C2=O [Pixantrone]	0	0	3.1	0.4
O=C(O)CC1CC(c2ccccc2)=NO1 (stereo not drawn) [VGX-1027]	0	0	0	0
CCc1c2c(nc3ccc(OC(=O)N4CCC(N5CCCCC5)CC4)cc13)-c1cc3c(c(=O)n1C2)COC(=O)[C@]3(O)CC [Irinotecan]	0	0	0	0.3
CN1CCN(CCOc2cc(OC3CCOCC3)c3c(Nc4c(Cl)ccc5c4OCO5)ncnc3c2)CC1 [Saracatinib]	2.5	1.3	2.9	2.7
CNC(=O)c1cccc2cc(Oc3ccnc4cc(OCC5(N)CC5)c(OC)cc34)ccc12 [Lucitanib]	0.3	1.2	0	0.7
CNc1ncc2cc(-c3cc(NC(=O)NCCC(C)(C)C)c(F)cc3C)c(C)nc2n1	21.9	19.4	0.6	14.8

Compound	drug sensitivity score (MDA-MB-231 [1]; shRNA: shPPFIA1_1) [DSS]	drug sensitivity score (MDA-MB-231 [1]; shRNA: shScramble) [DSS]	drug sensitivity score (MDA-MB-231 [2]; shRNA: shPPFIA1_1) [DSS]	drug sensitivity score (MDA-MB-231 [2]; shRNA: shScramble) [DSS]
COc1cc(OC2CCN(C)CC2)ccc1Nc1ncc2c(n1)n(C1CCCC1)c(=O)n2C [AZ 3146]	0.7	2.7	4.7	8.7
CC[C@@H]1C(=O)N(C)c2cnc(Nc3ccc(C(=O)N[C@H]4CC[C@H](N5CCN(CC6CC6)CC5)CC4)cc3OC)nc2N1C(C)C [Volasertib]	0	0	0	6.6
Cc1cc(Nc2cc(CN3CCOCC3)c3nc(C)c(Cc4ccc(Cl)cc4F)n3n2)n[nH]1 [Gandotinib]	2.1	1.7	1.6	4.4
CNC(=O)c1ccccc1Nc1cc(Nc2ccc(N3CCOCC3)cc2OC)ncc1C(F)(F)F [VS-4718]	0	0	0	0
CC[C@H](C)C(=O)O[C@H]1C[C@H](O)C=C2C=C[C@H](C)[C@H](CC[C@@H](O)C[C@@H](O)CC(=O)O)[C@H]21 [Pravastatin]	0	0	2.5	1.8
CC[C@@]1(O)C(=O)OCc2c1cc1n(c2=O)Cc2cc3c(CN(C)C)c(O)ccc3nc2-1 [Topotecan]	0.8	1.5	0	5.8
Nc1nc2[nH]cnc2c(=S)[nH]1 [Thioguanine]	0	0	5.1	10.2
COc1cccc2cc(-c3nc([C@H]4CC[C@H](C(=O)O)CC4)n4ncnc(N)c34)[nH]c12 [OSI-027]	0	0	0	2.9
O=C(c1ccc(F)c(F)c1Nc1ccc(I)cc1F)N1CC(O)([C@@H]2CCCCN2)C1 [Cobimetinib]	4.4	12	1.6	12.8
COc1cc([C@@H]2c3cc4c(cc3[C@@H](O[C@@H]3O[C@@H]5CO[C@@H](c6cccs6)O[C@H]5[C@H](O)[C@H]3O)[C@H]3COC(=O)[C@H]23)OCO4)cc(OC)c1O [Teniposide]	5.8	5.3	3.1	9
C=C(c1ccc(C(=O)O)cc1)c1cc2c(cc1C)C(C)(C)CCC2(C)C [Bexarotene]	0	0	0	0
C/C=C1\NC(=O)[C@H]2CSSCC/C=C/[C@H](CC(=O)N[C@H](C(C)C)C(=O)N2)OC(=O)[C@H](C(C)C)NC1=O [Romidepsin]	33.6	26.9	20.5	29
CN(C)CCOc1ccc(/C(=C(/CCCl)c2ccccc2)c2ccccc2)cc1 [Toremifene]	4.6	1.8	2.4	1.3
CC(=O)c1cnc2ccc(-c3cc(Cl)c(O)c(Cl)c3)nc2c1N[C@H]1CC[C@H](CN(C)C)CC1 [OTSSP167]	0	0.2	22.4	9.1
O=C(Nc1cccc(Cl)c1)Nc1ncc(CCNc2ncnc3ccsc23)s1 [SNS-314]	0	0	0	0
Nc1nc(NC2CC2)cc(-c2cccc(Cl)c2Cl)n1 [TH588]	0.6	0.5	0.9	0.8
CCn1c(=O)c(-c2cc[nH]n2)cc2c(C)nc(N)nc21 [Voxtalisib]	0	0.2	0.8	4.3
O=C1NC(=O)[C@@H](c2cn3c4c(cccc24)CCC3)[C@@H]1c1c[nH]c2ccccc12 [Tivantinib]	1.7	0.5	4.8	3.8
Cc1csc(-c2nnc(Nc3ccc(Oc4ncccc4-c4ccnc(N)n4)cc3)c3ccccc23)c1 [AMG-900]	0	0	0	0.3
CCCCCCCCc1ccc(CCC(N)(CO)CO)cc1 [Fingolimod]	6.7	6.8	7.5	8
S=C(NCc1ccc2c(c1)OCO2)N1CCN(c2ncnc3c2oc2ccccc23)CC1 [Amuvatinib]	5.5	0	0.6	1.8

Compound	drug sensitivity score (MDA-MB-231 [1]; shRNA: shPPFIA1_1) [DSS]	drug sensitivity score (MDA-MB-231 [1]; shRNA: shScramble) [DSS]	drug sensitivity score (MDA-MB-231 [2]; shRNA: shPPFIA1_1) [DSS]	drug sensitivity score (MDA-MB-231 [2]; shRNA: shScramble) [DSS]
CC1=C(/C=C/C(C)=C/C=C/C(C)=C/C(=O)O)C(C)(C)CCC1 [Tretinoin]	0	0	0	0
O=S(=O)(c1cccc2c(O)nccc12)N1CCCNCC1 [Hydroxyfasudil]	0	0	0	0
CCn1cc(-c2ccnc3[nH]c(-c4cccc(CN(C)C)c4)cc23)c(-c2ccc(NC(=O)N(C)C)cc2)n1	0	6.4	3.9	0
N#Cc1ccc(COC[C@H]2O[C@@H](n3c(NCc4ccc(Cl)c(Cl)c4)nc4c(N)ncnc43)[C@H](O)[C@@H]2O)cc1	0	0	2.3	1.7
N[C@@H](Cc1ccc(N(CCCl)CCCl)cc1)C(=O)O [Melphalan]	0	0	0	0.4
C=CC[C@@H]1/C=C(\C)C[C@H](C)C[C@H](OC)[C@H]2O[C@@](O)(C(=O)C(=O)N3CCCC[C@H]3C(=O)O[C@H](/C(C)=C/[C@@H]3CC[C@@H](O)[C@H](OC)C3)[C@H](C)[C@@H](O)CC1=O)[C@H](C)C[C@@H]2OC [Tacrolimus]	0	0	0	0
Cc1ccc(NC(=O)c2ccc(CN3CCN(C)CC3)cc2)cc1Nc1nc(-c2cccnc2)cs1 [Masitinib]	0.2	0.1	0.2	2.9
Cc1ccc(-n2nc(C(C)(C)C)cc2NC(=O)Nc2ccc(OCCN3CCOCC3)c3ccccc23)cc1 [Doramapimod]	0	0	0	2.5
Cc1cnc(-c2ccccc2C(C)C)nc1NCc1ccc(-n2ccnn2)cc1 [ML323]	0	0	0	1.7
O=C(CCCCCCNC(=O)c1cnc(N(c2ccccc2)c2ccccc2)nc1)NO [Rocilinostat]	6.7	1	2.1	3.5
O=C(O)C1(C(=O)O)CCC1.[NH2-].[NH2-].[Pt+2] [Carboplatin]	0	0	0	0
CN(C)/N=N/c1[nH]cnc1C(N)=O [Dacarbazine]	0	0	0	0
O[C@H]1CC[C@H](Nc2ncc3nc(Nc4c(F)cc(F)cc4F)n([C@H]4CCOC4)c3n2)CC1 [Tanzisertib]	0	0	0	3.1
Cn1cc(-c2ccc3nnc(C(F)(F)c4ccc5ncccc5c4)n3n2)cn1	0	0	0	6.9
O=C(Nc1cc(Cl)cc2c1[nH]c1cnccc12)c1cccnc1 [PS-1145]	0	0.3	0.9	0.9
CNC(=O)c1cccc(-c2ccc3c(N4CCOC[C@@H]4C)nc(N4CCOC[C@@H]4C)nc3n2)c1 [AZD2014]	0	0.5	0	7.9
Cc1ccc2nc(CN(CCN(Cc3nc4ccc(C)cc4[nH]3)Cc3nc4ccc(C)cc4[nH]3)Cc3nc4ccc(C)cc4[nH]3)[nH]c2c1	6.8	1.9	0.6	2.6
Clc1ccc(Nc2nnc(Cc3ccncc3)c3ccccc23)cc1 [Vatalanib]	0	0	0	0
NS(=O)(=O)OC[C@@H]1C[C@@H](n2ccc3c(N[C@H]4CCc5ccccc54)ncnc32)C[C@@H]1O [Pevonedistat]	7.6	7	16.9	10.6
CCCCNc1ncc(C(=O)NCc2ccc(-n3ccnc3)cc2)c(NC2CCC(O)CC2)n1 (stereo not drawn) [UNC2881]	0	0	0	0.5
